One test addresses T1, serotonin transporter (Rattus norvegicus, UniProt P31652).
T1 construct: displace ^3H-paroxetine from male rat frontal cortical membranes; from tissue; host or cells: male rat frontal cortex membranes
The experiment in a line: Displacement of 3H-paroxetine from male rat frontal cortical membranes (serotonin transporter affinity). Type of test: binding. The note with it: read-out: 5-HT Transporter Affinity KI. (In general: In a radioligand displacement assay an active substance lowers the binding of a labelled ligand.)

The next test addresses T2, human 5-HT1A receptors (Homo sapiens, UniProt P08908).
T2 construct: expressed in transfected cells; host or cells: CHO cells
T2 sequence (P08908 1-422): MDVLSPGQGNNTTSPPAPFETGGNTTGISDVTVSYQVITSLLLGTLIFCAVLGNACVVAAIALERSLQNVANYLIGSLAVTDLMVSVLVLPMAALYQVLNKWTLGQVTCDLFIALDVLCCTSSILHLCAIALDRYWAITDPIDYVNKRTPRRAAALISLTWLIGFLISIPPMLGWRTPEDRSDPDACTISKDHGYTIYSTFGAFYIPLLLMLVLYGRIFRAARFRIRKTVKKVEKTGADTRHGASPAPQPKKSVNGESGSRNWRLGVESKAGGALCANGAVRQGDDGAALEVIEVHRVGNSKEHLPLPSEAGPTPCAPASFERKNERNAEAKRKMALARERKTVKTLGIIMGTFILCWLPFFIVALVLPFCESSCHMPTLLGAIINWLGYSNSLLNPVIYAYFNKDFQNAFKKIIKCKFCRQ
The experiment in a line: Displacement of [3H] 8-OHDPAT from 5-HT1A receptor, CHO cells stably transfected with human 5-HT1A receptors. Type of test: binding. The conditions noted are these: CHO cells with human 5-HT1A receptors, read-out: 5-HT1A Receptor Affinity KI. The source says:
High affinity for the serotonin 5-HT1A receptor was established by testing the claimed compound's ability to displace [^3H] 8-OHDPAT (dipropylaminotetralin) from the 5-HT1A serotonin receptor following a modification of the procedure of Hall et al., J. Neurochem. 44, 1685 (1985) which utilizes CHO cells stably transfected with human 5-HT1A receptors.

Test [1] deals with T3, cloned human 5HT1A receptors (Homo sapiens, UniProt P08908).
T3 construct: expressed in transfected cells
T3 sequence (P08908 1-422): T2 sequence (P08908 1-422)
The experiment in a line: 35S-GTPγS binding assay, membranes containing cloned human 5HT1A receptors. Type of test: biochemical. The conditions noted are these: for IC50: antagonist potency, reversal of the effects of the standard agonist 8-OHDPAT, read-out: 5-HT1A Function IC50. How it is done: Antagonist activity at 5-HT1A receptors was established by using a ^35S-GTPγS binding assay similar to that used by Lazareno and Birdsall (Br. J. Pharmacol. 109: 1120, 1993), in which the test compound's ability to affect the binding of ^35S-GTPγS to membranes containing cloned human 5HT1A receptors was determined. Agonists produce an increase in binding whereas antagonists produce no increase but rather reverse the effects of the standard agonist 8-OHDPAT. The test compound's maximum inhibitory effect is represented as the Imax, while its potency is defined by the IC50.
For orientation: Binding of GTPγS marks nucleotide exchange on a G protein.

Setting [2] is: maximum inhibitory effect, read-out: 5-HT1A Function (Imax).

Like-named read-outs stand apart in the source and are kept apart here.

T1 sequence (P31652 whole entry): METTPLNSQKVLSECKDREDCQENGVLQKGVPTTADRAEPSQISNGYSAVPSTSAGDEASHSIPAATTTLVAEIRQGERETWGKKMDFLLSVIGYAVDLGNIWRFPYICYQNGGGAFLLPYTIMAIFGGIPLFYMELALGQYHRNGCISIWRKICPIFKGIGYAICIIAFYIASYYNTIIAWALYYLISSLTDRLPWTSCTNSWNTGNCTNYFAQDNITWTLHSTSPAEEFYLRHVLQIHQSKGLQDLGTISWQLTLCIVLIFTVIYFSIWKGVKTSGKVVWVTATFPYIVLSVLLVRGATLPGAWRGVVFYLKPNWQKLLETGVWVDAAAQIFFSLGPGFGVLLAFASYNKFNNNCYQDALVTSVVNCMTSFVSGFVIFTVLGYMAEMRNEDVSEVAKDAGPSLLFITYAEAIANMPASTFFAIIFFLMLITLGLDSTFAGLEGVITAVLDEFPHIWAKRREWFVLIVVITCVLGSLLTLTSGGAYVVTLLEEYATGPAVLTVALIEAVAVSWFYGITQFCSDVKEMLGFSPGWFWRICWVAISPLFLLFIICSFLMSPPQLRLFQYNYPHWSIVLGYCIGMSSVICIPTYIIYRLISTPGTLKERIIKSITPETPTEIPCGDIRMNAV

For orientation: Ki means the equilibrium dissociation constant of an inhibitor or competing ligand from its target. As a reminder, the IC50 is the concentration that inhibits the measured activity by half. Take `Cc1ccc2c3c(ccc2n1)OCC(CNCCCc1cn(C)c2ccc(F)cc12)O3` (stereo not shown) [Example 12, N-[3-(5-Fluoro-1-methyl-1H-indol-3-yl)propyl]-N-(8-methyl-2,3-dihydro-[1,4]dioxino[2,3-f]quinolin-2-ylmethyl)amine]: the Ki is 13 nM on serotonin transporter and 1.55 nM on human 5-HT1A receptors. Further, the IC50 in test [1] turned out to be 138 nM. Besides, the Emax in test [1] (setting [2]) was found to be 81.6%.

`Cc1nc2ccc3c(c2o1)O[C@@H](CN(C)CCCc1c[nH]c2ccc(C#N)cc12)CO3` [Example 31, 3-{3-[M thyl-(2-methyl-7,8-dihydro-[1,4]dioxino[2,3[-g][1,3]benzoxazol-8-ylmethyl)-amino]-propyl)}-1H-indole-5-carbonitrile]: the inhibition constant Ki on serotonin transporter was found to be 2.4 nM; at human 5-HT1A receptors, 35.3 nM. In addition, in test [1], the half-maximal inhibitory concentration (IC50) worked out at 205 nM. For the same compound, in test [1] (setting [2]), the Emax amounted to 97.7%.

As for `CCN(CCCc1c[nH]c2ccc(F)cc12)CC1COc2ccc3nc(C)ccc3c2O1` (stereo not shown) [Example 25, N-Ethyl-N-[3-(5-Fluoro-1H-indol-3-yl)propyl]-N-(8-methyl-2,3-dihydro-[1,4]dioxino[2,3-f]quinolin-2-ylmethyl)amine], the Ki on serotonin transporter was found to be 0.6 nM; on human 5-HT1A receptors, 5.47 nM. Moreover, in test [1], the IC50 was found to be 43.5 nM. For the same compound, in test [1] (setting [2]), the Emax is 94%.

For the compound `Cc1ccc2c3c(ccc2n1)OCC(CNC(C)CCc1c[nH]c2ccc(F)cc12)O3` (single isomer, unassigned; isomer b) [Example 11 Isomer B], the Ki stood at 0.43 nM at serotonin transporter and 4.65 nM at human 5-HT1A receptors.

On to `Cc1ccc2c3c(ccc2n1)OCC(CN(C)CCCCc1c[nH]c2ccc(C#N)cc12)O3` (stereo not shown) [Example 41, 3-{4-[Methyl-(8-methyl-2,3-dihydro-[1,4]dioxino[2,3-f]quinolin-2-ylmethyl)-amino]-butyl}-1H-indole-5-carbonitrile], for which the inhibition constant Ki on serotonin transporter was 0.24 nM; on human 5-HT1A receptors, 21 nM.

As for `Cc1ccc2c3c(ccc2n1)OCC(CN(C)CCCc1cn(C)c2ccc(C#N)cc12)O3` (stereo not shown) [Example 40, 1-Methyl-3-{3-[methyl-(8-methyl-2,3-dihydro-[1,4]dioxino[2,3-f]quinolin-2-ylmethyl)-amino]-propyl}-1H-indole-5-carbonitrile], the inhibitory constant (Ki) was found to be 7 nM at serotonin transporter and 17.7 nM on human 5-HT1A receptors. Moreover, the IC50 in test [1] was determined as 1980 nM. In addition, the Emax in test [1] (setting [2]) stood at 100%.

Take `Cc1nc2ccc3c(c2o1)OC(CN(C)CCCc1c[nH]c2ccc(F)cc12)CO3` (stereo not shown) [Example 24, N-[3-(5-Fluoro-1H-indol-3-yl)propyl]-N-methyl-N-(2-methyl-7,8-dihydro[1,4]dioxino[2,3-g][1,3]benzoxazol-8-ylmethyl)amine]: the Ki at serotonin transporter is 1.4 nM; at human 5-HT1A receptors, 4.45 nM. Moreover, the IC50 in test [1] is 157 nM. Moreover, the Emax in test [1] (setting [2]) was 100%.

In the case of `Cc1ccc2c3c(ccc2n1)OCC(CN(C)CCCc1cn(C)c2ccc(F)cc12)O3` (stereo not shown) [Example 42, [3-(5-Fluoro-1-methyl-1H-indol-3-yl)-propyl]-methyl-(8-methyl-2,3-dihydro-[1,4]dioxino[2,3-f]quinolin-2-ylmethyl)-amine], the Ki came to 2.75 nM at serotonin transporter and 36 nM at human 5-HT1A receptors.

As usually defined, the EC50 is the concentration at which the effect is half-maximal. Regarding `CCN(CCCCc1coc2ccccc12)C[C@H]1COc2ccc3nc(C)ccc3c2O1` [Example 52, N-[4-(1-Benzofuran-3-yl)butyl]-N-ethyl-N-{[(2S)-8-methyl-2,3-dihydro[1,4]dioxino[2,3-f]quinolin-2-yl]methyl}amine], the Ki at human 5-HT1A receptors was 2.08 nM. In addition, the EC50 in test [1] (given as EC50, read-out: 5-HT1A Function EC50) was found to be 526 nM. Further, the Emax in test [1] (given as Emax, read-out: 5-HT1A Function Emax) is 97%.

Regarding `Cc1ccc2c3c(ccc2n1)OCC(CNCCCCc1coc2ccccc12)O3` (stereo not shown) [Example 28, N-[4-(1-Benzofuran-3-yl)butyl]-N-(8-methyl-2,3-dihydro-[1,4]dioxino[2,3-f]quinolin-2-ylmethyl)amine], the Ki at serotonin transporter worked out at 5.5 nM; at human 5-HT1A receptors it was 0.28 nM.

For the origin of these results see patent US6800637B2, “Antidepressant indolealkyl derivatives of heterocycle-fused benzodioxan methylamines” (Wyeth, priority 2002, dated 2004).
